Patent US20240294495A1, “COMPOUNDS THAT MEDIATE PROTEIN DEGRADATION AND METHODS OF USE THEREOF” (Monte Rosa Therapeutics, Inc., priority 2021, published 2024)

Columns and labels:
CRBN-DDB1 = CRBN-DDB1 (Homo sapiens, UniProt Q96SW2); assay: Compound binding to CRBN by HTRF assay; conditions: CRBN-DDB1 2.5 nM, Cy5-Thalidomide 100 nM probe, 30 min incubation; read-out: HTRF Class (Cereblon binding, HTRF IC50)
Description: Compound activity was monitored in a Homogenous Time-Resolved Fluorescence (HTRF) assay using 1-[5-({2-[2-(2-{[2-(2,6-dioxopiperidin-3-yl)-1,3-dioxo-2,3-dihydro-1H-isoindol-4-yl]oxy}acetamido)ethoxy]ethyl}carbamoyl)pentyl]-3,3-dimethyl-2-[(1E,3E)-5-[(2E)-1,3,3-trimethyl-5-sulfo-2,3-dihydro-1H-indol-2-ylidene]penta-1,3-dien-1-yl]-3H-indol-1-ium-5-sulfonate as a fluorescent probe. Biochemical assays were conducted in Greiner white 384 well HiBase plates (Cat. No 784075-25) in 10 μL total volume. A one pot detection solution of CRBN-DDB1 (2.5 nM), Anti-His Terbium Cryptate Gold (1×, PerkinElmer Cat. #: 61HI2TLB), and Cy5-Thalidomide (100 nM, Tenova Cat.: T52461) was prepared in 20 mM HEPES, 20 mM NaCl, 0.2 mM TCEP, 0.2 mM EDTA, and 0.005% Tween20 was dispensed to each assay plate. Compounds were stored in dry, ambient temperatures at 10 mM. A 10-point, 1:3 dilution series was prepared from 10 mM stock concentrations in Echo-compatible LDV plates. 10 nL of each compound dilution series was dispensed into assays wells using an Echo 650 (Labcyte inc. USA). 10 nL of 10 mM Lenalidomide was transferred into the active-control wells for the assay and 10 nL of DMSO was transferred into the neutral-control wells. The assay was then allowed to incubate for 30 min at ambient temperature after transferring compound. Plate measurements were taken on a Pherastar FSX (BMG Labtech, Germany) using the HTRF Red filter (Ex. 337 nm, em1: 620 nm, em2: 665 nm) (Flashes: 50, Integration time: 60-400 us, Z-height: 10 mm, Ratio-multiplier: 10,000). The HTRF signal was then subsequently normalized to the neutral and active controls. Analysis and IC50 values were derived using KNIME analytics (KNIME Zurich) transformation and fitting within Collaborative Drug Discovery (Collaborative Drug Discovery USA). Ki was derived from the geometric mean of the IC50 values using the Cheng-Prustoff transformation.
(§1) In Table 2, each compound is assigned a class (HTRF class) indicating the ability for Cereblon binding by means of their HTRF IC50 values according to Example 3: A, B or C. According to the code, A represents an IC50 value of <100 nM, B represents an IC50 value>100 nM and <1000 nM, C represents an IC50 value>1000 nM. IF Class assigns each compound a code indicating the ability for GSPT1 degradation: A, B or C. According to the code, A represents a DC50 value of <30 nM, B represents a DC50 value>30 nM and <300 nM and C represents a DC50 value of >300 nM.

GSPT1 = molecular target: T1, GSPT1 (Homo sapiens, UniProt P15170+Q96SW2); assay: Immunofluorescence assay for GSPT1 degradation in CAL-51 cells; type: cell-based; conditions: 6 h treatment, read-out: IF Class (GSPT1 degradation, DC50)
T1 construct: CAL-51 cells were purchased from DSMZ (cat. Number ACC302); endogenous in cells; host or cells: CAL-51 (DSMZ ACC302)
T1 sequence (P15170 whole entry): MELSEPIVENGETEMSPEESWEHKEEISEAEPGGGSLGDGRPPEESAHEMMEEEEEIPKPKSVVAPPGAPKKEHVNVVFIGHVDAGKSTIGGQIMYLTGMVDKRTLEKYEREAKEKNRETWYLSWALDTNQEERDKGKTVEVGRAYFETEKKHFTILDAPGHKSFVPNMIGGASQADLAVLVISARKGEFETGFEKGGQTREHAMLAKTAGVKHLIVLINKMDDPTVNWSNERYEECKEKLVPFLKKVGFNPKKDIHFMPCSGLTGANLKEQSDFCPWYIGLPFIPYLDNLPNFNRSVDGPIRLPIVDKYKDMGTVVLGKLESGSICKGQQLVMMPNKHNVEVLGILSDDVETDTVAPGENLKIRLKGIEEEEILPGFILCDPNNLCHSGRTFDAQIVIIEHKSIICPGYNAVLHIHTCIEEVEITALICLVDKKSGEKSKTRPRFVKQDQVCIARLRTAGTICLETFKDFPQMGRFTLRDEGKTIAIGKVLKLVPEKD
T1 sequence (Q96SW2 whole entry): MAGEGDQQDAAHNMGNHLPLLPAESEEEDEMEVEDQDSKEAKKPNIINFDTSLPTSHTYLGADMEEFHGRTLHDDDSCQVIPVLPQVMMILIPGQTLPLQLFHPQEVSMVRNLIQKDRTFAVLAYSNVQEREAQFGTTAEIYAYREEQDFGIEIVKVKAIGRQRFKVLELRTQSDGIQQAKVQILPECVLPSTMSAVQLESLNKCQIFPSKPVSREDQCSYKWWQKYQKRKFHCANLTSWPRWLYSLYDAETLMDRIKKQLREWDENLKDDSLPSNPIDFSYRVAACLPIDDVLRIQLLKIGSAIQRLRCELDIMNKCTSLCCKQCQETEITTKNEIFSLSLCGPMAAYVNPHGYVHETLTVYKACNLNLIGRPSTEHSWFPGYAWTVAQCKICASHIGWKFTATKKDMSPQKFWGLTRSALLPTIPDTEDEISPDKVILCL
T1 sequence (Q16531 2-1140 partner limits assumed): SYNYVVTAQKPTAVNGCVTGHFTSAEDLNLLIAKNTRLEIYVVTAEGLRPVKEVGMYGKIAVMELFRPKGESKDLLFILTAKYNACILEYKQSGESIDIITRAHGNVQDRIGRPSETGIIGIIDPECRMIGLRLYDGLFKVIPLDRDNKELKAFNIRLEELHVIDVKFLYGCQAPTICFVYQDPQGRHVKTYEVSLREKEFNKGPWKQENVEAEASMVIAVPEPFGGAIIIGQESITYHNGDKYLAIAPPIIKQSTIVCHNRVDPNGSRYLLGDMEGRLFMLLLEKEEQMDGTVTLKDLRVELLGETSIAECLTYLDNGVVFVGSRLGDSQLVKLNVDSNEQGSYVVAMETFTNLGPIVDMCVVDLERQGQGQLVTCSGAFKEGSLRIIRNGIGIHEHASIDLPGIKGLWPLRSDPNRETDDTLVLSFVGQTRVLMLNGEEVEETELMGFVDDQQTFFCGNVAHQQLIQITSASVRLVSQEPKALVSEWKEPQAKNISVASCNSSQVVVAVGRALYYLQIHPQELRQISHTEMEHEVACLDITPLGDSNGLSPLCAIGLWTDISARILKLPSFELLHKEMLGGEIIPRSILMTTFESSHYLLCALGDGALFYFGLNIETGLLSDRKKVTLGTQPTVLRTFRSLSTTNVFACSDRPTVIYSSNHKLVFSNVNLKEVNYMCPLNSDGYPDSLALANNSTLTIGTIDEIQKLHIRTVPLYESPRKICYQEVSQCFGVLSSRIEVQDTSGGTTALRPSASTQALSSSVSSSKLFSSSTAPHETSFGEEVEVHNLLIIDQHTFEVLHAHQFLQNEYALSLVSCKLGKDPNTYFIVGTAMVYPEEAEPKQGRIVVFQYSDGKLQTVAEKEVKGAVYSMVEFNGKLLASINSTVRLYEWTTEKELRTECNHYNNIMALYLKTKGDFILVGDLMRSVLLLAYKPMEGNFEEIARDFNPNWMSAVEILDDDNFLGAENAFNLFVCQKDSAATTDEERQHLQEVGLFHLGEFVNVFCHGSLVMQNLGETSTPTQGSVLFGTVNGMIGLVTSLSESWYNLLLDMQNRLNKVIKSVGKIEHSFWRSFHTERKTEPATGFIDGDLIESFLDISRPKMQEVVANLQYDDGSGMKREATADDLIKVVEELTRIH
Description: The representative compounds were tested in an immunofluorescence assay for their activity to degrade GSPT1. CAL-51 cells were purchased from DSMZ (cat. Number ACC302), sub-cultured in 90% Dulbecco's MEM (4.5 g/L glucose, Gibco 11965)+10% heat inactivated FBS (BioConcept, 2-01F136I) and incubated at 37° C., 5% CO2. For the assay imaging microtiter plate Cell Carrier 96 Ultra (Perkin Elmer 6055302) were pre-coated with Fibronectin (Sigma F085, 30 μl at 0.2 μg/mL) in PBS (100 μL, Gibco 14190) for 45 min at room temperature, rinsed with PBS and CAL-51 cells (30K cells/well) were plated and let to adhere overnight. Cells were treated with compounds typically using a serial dilution ranging from 30 μM to 0.1 nM for 6 h. Compounds were stored at 10 mM DMSO stocks. Vehicle (DMSO), positive (CC-885, 10 μM) and rescue controls (positive control plus 0.2 μM bortezomib) were also included at this stage. Cells were subsequently rinsed with PBS and fixed in 10% Formalin solution (50 μl, Sigma HT5011)) for 20 min at room temperature. Following three consecutive PBS washes (100 μL), cells were permeabilized in 0.1% Triton X-100 in PBS (Sigma 93443, 50 μl) for 15 min at room temperature. Following three further PBS washes, 50 μl blocking buffer (1% BSA, Sigma A4503, in PBS) was added for 45 min for signal-to noise reduction. Primary antibody (human GSPT1, Sigma HPA052488) was diluted in blocking buffer (dil.1/300, 35 μL/well) and incubated with the cells overnight at 4° C. After three PBS washes, Alexa-fluor 488 coupled secondary antibodies (Invitrogen, A32731, dil.1/1000), Alexa-fluor 647-Phalloidin (Invitrogen, A22287, dil.1/200) and DAPI (Thermo, #62248, dil.1/1000) were diluted in blocking buffer and incubated with the samples for 2 h at room temperature. After three final PBS washes, samples were conserved in 100 μL PBS in the dark, until measurement. Image acquisition was performed on the Operetta High-Content Imager (Perkin-Elmer). Fluorescence intensity of […] (GSPT1), Alexa-Fluor 647 (Actin) and DAPI (Nucleus) were measured. For the determination of GSPT1 DC50 values, a custom algorithm implemented in the PerkinElmer image analysis software Harmony-Acapella® was developed. After user-defined setting of adjustment parameters, the analysis was run identically without human intervention for all image fields. DAPI staining of the nuclei was used to determine the location of cells using standard nuclei detection modules. Segmentation artifacts were removed by threshold-based filters for area, roundness and intensity. The outline of the cells was determined analogously from the sum of the normalized, smoothed DAPI and Actin channel, starting from each nucleus. The Alexa-Fluor 488 (GSPT1) signal intensity in each cell was finally measured, in order to obtain a Mean intensity per cell. GSPT1 degradation (DC50) was calculated after normalization to controls and data import in CDD vault Database, using non-linear regression.
as §1

Chain of CRBN-DDB1 (Q96SW2 whole entry): as the sequence (Q96SW2 whole entry) above
Chain of CRBN-DDB1 (Q16531 whole entry partner): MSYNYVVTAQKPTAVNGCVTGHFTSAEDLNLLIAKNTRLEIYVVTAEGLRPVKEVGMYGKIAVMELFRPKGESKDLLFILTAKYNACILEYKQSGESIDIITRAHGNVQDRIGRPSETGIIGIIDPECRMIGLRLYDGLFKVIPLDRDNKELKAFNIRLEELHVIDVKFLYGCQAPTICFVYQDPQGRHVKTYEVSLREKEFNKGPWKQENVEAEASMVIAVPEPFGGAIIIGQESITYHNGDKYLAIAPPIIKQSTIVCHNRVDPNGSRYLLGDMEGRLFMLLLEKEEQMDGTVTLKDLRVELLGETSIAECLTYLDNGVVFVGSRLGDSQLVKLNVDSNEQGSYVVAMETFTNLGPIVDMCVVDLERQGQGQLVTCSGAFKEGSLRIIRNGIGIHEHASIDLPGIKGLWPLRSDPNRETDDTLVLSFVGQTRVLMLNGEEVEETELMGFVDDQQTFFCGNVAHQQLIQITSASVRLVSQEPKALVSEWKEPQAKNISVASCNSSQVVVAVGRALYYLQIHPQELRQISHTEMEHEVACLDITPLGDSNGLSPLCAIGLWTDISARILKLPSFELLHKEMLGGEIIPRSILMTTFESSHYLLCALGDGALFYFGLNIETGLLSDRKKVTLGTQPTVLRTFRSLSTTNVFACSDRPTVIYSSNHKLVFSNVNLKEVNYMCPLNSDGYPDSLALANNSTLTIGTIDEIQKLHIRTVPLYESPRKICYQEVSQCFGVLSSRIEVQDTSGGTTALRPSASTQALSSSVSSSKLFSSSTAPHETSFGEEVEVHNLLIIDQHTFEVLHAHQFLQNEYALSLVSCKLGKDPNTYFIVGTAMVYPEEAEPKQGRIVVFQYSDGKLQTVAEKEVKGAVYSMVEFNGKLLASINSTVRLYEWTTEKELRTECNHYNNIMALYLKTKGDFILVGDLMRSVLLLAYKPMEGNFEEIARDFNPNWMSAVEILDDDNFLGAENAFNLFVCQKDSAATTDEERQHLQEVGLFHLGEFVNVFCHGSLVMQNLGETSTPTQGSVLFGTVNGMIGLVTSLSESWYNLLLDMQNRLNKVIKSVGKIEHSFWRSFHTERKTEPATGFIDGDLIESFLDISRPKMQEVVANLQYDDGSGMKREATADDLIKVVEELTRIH

SMILES | IC50 (CRBN-DDB1) [nM] | DC50 (GSPT1) [nM]
Cc1cc(CC(=O)NC2CN(c3cc(F)c(C4CCC(=O)NC4=O)c(F)c3)C2)ncc1Cl (stereo not drawn) [Compound 22, 2-(5-chloro-4-methylpyridin-2-yl)-N-(1-(4-(2,6-dioxopiperidin-3-yl)-3,5-difluorophenyl)azetidin-3-yl)acetamide] | 100 to 1000 | > 300
CC(C)(C)C12CC(C(=O)NC3CN(c4cc(F)c(C5CCC(=O)NC5=O)c(F)c4)C3)(C1)C2 (stereo not drawn) [Compound 23, 3-(tert-butyl)-N-(1-(4-(2,6-dioxopiperidin-3-yl)-3,5-difluorophenyl)azetidin-3-yl) bicyclo[1.1.1]pentane-1-carboxamide] | 100 to 1000 | > 300
O=C1CCC(c2c(F)cc(N3CC(NC(=O)Cc4ccc5c(c4)OCC5)C3)cc2F)C(=O)N1 (stereo not drawn) [Compound 24, 2-(2,3-dihydrobenzofuran-6-yl)-N-(1-(4-(2,6-dioxopiperidin-3-yl)-3,5-difluorophenyl)azetidin-3-yl)acetamide] | 100 to 1000 | > 300
Cc1nc(CC(=O)NC2CN(c3cc(F)c(C4CCC(=O)NC4=O)c(F)c3)C2)ccc1Cl (stereo not drawn) [Compound 25, 2-(5-chloro-6-methylpyridin-2-yl)-N-(1-(4-(2,6-dioxopiperidin-3-yl)-3,5-difluorophenyl)azetidin-3-yl)acetamide] | 100 to 1000 | > 300
O=C1CCC(c2c(F)cc(N3CC(NC(=O)Cc4cc(F)cc(OC(F)F)c4)C3)cc2F)C(=O)N1 (stereo not drawn) [Compound 26, 2-(3-(difluoromethoxy)-5-fluorophenyl)-N-(1-(4-(2,6-dioxopiperidin-3-yl)-3,5-difluorophenyl)azetidin-3-yl)acetamide] | 100 to 1000 | > 300
COc1cc(Cl)ccc1CC(=O)NC1CN(c2cc(F)c(C3CCC(=O)NC3=O)c(F)c2)C1 (stereo not drawn) [Compound 27, 2-(4-chloro-2-methoxyphenyl)-N-(1-(4-(2,6-dioxopiperidin-3-yl)-3,5-difluorophenyl)azetidin-3-yl)acetamide] | 100 to 1000 | 30 to 300
O=C1CCC(c2c(F)cc(N3CC(NC(=O)Cc4cccc(OC(F)(F)F)c4)C3)cc2F)C(=O)N1 (stereo not drawn) [Compound 28, N-(1-(4-(2,6-dioxopiperidin-3-yl)-3,5-difluorophenyl)azetidin-3-yl)-2-(3-(trifluoromethoxy)phenyl) acetamide] | 100 to 1000 | 30 to 300
Cc1cc(C)cc(CC(=O)NC2CN(c3cc(F)c(C4CCC(=O)NC4=O)c(F)c3)C2)c1 (stereo not drawn) [Compound 29, 2-(3,5-dimethylphenyl)-N-(1-(4-(2,6-dioxopiperidin-3-yl)-3,5-difluorophenyl)azetidin-3-yl)acetamide] | 100 to 1000 | < 30

Next, values leading:

IC50 (CRBN-DDB1) [nM] | DC50 (GSPT1) [nM] | SMILES
< 100 | 30 to 300 | O=C1CCC(c2c(F)cc(N3CC(NC(=O)Cc4cc(Cl)ccc4F)C3)cc2F)C(=O)N1 (stereo not drawn) [Compound 12, 2-(5-chloro-2-fluorophenyl)-N-(1-(4-(2,6-dioxopiperidin-3-yl)-3,5-difluorophenyl)azetidin-3-yl)acetamide]
100 to 1000 | > 300 | O=C1CCC(c2c(F)cc(N3CC(NC(=O)Cc4ccc(F)c(Cl)c4)C3)cc2F)C(=O)N1 (stereo not drawn) [Compound 13, 2-(3-chloro-4-fluorophenyl)-N-(1-(4-(2,6-dioxopiperidin-3-yl)-3,5-difluorophenyl)azetidin-3-yl)acetamide]
100 to 1000 | > 300 | O=C1CCC(c2c(F)cc(N3CC(NC(=O)Cc4ccc(Cl)c(F)c4)C3)cc2F)C(=O)N1 (stereo not drawn) [Compound 14, 2-(4-chloro-3-fluorophenyl)-N-(1-(4-(2,6-dioxopiperidin-3-yl)-3,5-difluorophenyl)azetidin-3-yl)acetamide]
100 to 1000 | > 300 | O=C1CCC(c2c(F)cc(N3CC(NC(=O)Cc4ncc(Cl)cc4F)C3)cc2F)C(=O)N1 (stereo not drawn) [Compound 15, 2-(5-chloro-3-fluoropyridin-2-yl)-N-(1-(4-(2,6-dioxopiperidin-3-yl)-3,5-difluorophenyl)azetidin-3-yl)acetamide]
100 to 1000 | 30 to 300 | O=C1CCC(c2c(F)cc(N3CC(NC(=O)Cc4c(F)cc(Cl)cc4F)C3)cc2F)C(=O)N1 (stereo not drawn) [Compound 16, 2-(4-chloro-2,6-difluorophenyl)-N-(1-(4-(2,6-dioxopiperidin-3-yl)-3,5-difluorophenyl)azetidin-3-yl) acetamide]
100 to 1000 | > 300 | O=C1CCC(c2c(F)cc(N3CC(NC(=O)Cc4ccc(F)c(F)c4)C3)cc2F)C(=O)N1 (stereo not drawn) [Compound 17, 2-(3,4-difluorophenyl)-N-(1-(4-(2,6-dioxopiperidin-3-yl)-3,5-difluorophenyl)azetidin-3-yl)acetamide]
100 to 1000 | < 30 | Cc1c(Cl)cc(CC(=O)NC2CN(c3cc(F)c(C4CCC(=O)NC4=O)c(F)c3)C2)cc1CN1CCOCC1 (stereo not drawn) [Compound 18, 2-(3-chloro-4-methyl-5-(morpholinomethyl)phenyl)-N-(1-(4-(2,6-dioxopiperidin-3-yl)-3,5-difluorophenyl)azetidin-3-yl)acetamide]
< 100 | > 300 | C[C@@H]1CCCN1c1ccc(CC(=O)NC2CN(c3cc(F)c(C4CCC(=O)NC4=O)c(F)c3)C2)cn1 (stereo partly drawn) [Compound 19, N-(1-(4-(2,6-dioxopiperidin-3-yl)-3,5-difluorophenyl)azetidin-3-yl)-2-(6-((R)-2-methylpyrrolidin-1-yl)pyridin-3-yl)acetamide]
100 to 1000 | > 300 | O=C1CCC(c2c(F)cc(N3CC(NC(=O)Cc4ccc(C5CCC5)cc4)C3)cc2F)C(=O)N1 (stereo not drawn) [Compound 20, 2-(4-cyclobutylphenyl)-N-(1-(4-(2,6-dioxopiperidin-3-yl)-3,5-difluorophenyl)azetidin-3-yl)acetamide]
100 to 1000 | > 300 | O=C1CCC(c2c(F)cc(N3CC(NC(=O)C45CC(c6ccccc6)(C4)C5)C3)cc2F)C(=O)N1 (stereo not drawn) [Compound 21, N-(1-(4-(2,6-dioxopiperidin-3-yl)-3,5-difluorophenyl)azetidin-3-yl)-3-phenylbicyclo [1.1.1]pentane-1-carboxamide]
